Experiments:
full-length ATR = biological target: T1, full-length ATR (Homo sapiens, UniProt Q13535); assay: ATR inhibition assay (radioactive-phosphate incorporation); format: biochemical; settings: 5 nM full-length ATR, 10 μM ATP, 800 μM target peptide, 25° C.; read-out: Ki values (Ki(app)) for inhibiting ATR
T1 construct: Assays are carried out at 25° C. in the presence of 5 nM full-length ATR
Description: Compounds can be screened for their ability to inhibit ATR kinase using a radioactive-phosphate incorporation assay. Assays are carried out in a mixture of 50 mM Tris/HCl (pH 7.5), 10 mM MgCl2 and 1 mM DTT. Final substrate concentrations are 10 μM [γ-33P]ATP (3mCi 33P ATP/mmol ATP, Perkin Elmer) and 800 μM target peptide (ASELPASQPQPFSAKKK).
Assays are carried out at 25° C. in the presence of 5 nM full-length ATR. An assay stock buffer solution is prepared containing all of the reagents listed above, with the exception of ATP and the test compound of interest. 13.5 μL of the stock solution is placed in a 96 well plate followed by addition of 2 μL of DMSO stock containing serial dilutions of the test compound (typically starting from a final concentration of 15 μM with 3-fold serial dilutions) in duplicate (final DMSO concentration 7%). The plate is pre-incubated for 10 minutes at 25° C. and the reaction initiated by addition of 15 μL [γ-33P]ATP (final concentration 10 μM).
The reaction is stopped after 24 hours by the addition of 30 μL 0.1M phosphoric acid containing 2 mM ATP. […]
After removing mean background values for all of the data points, Ki(app) data are calculated from non-linear regression analysis of the initial rate data using the Prism software package (GraphPad Prism version 3.0cx for Macintosh, GraphPad Software, San Diego Calif., USA).

[1] = test system: HCT116 colorectal cancer cells; assay: Cisplatin sensitization assay, 96 h cell viability (MTS); format: cell-based; settings: compound and Cisplatin added simultaneously
Description: Compounds can be screened for their ability to sensitize HCT116 colorectal cancer cells to Cisplatin using a 96 h cell viability (MTS) assay. […] Compounds and Cisplatin are then both added simultaneously to the cell media in 2-fold serial dilutions from a top final concentration of 10 μM as a full matrix of concentrations in a final cell volume of 200 μl, and the cells are then incubated at 37° C. in 5% CO2. After 96 h, 40 μl of MTS reagent (Promega G358a) is added to each well and the cells are incubated for 1 h at 37° C. in 5% CO2. Finally, absorbance is measured at 490 nm using a SpectraMax Plus 384 reader (Molecular Devices) and the concentration of compound required to reduce the IC50 of Cisplatin alone by at least 3-fold (to 1 decimal place) can be reported.

T1 sequence (Q13535 whole entry): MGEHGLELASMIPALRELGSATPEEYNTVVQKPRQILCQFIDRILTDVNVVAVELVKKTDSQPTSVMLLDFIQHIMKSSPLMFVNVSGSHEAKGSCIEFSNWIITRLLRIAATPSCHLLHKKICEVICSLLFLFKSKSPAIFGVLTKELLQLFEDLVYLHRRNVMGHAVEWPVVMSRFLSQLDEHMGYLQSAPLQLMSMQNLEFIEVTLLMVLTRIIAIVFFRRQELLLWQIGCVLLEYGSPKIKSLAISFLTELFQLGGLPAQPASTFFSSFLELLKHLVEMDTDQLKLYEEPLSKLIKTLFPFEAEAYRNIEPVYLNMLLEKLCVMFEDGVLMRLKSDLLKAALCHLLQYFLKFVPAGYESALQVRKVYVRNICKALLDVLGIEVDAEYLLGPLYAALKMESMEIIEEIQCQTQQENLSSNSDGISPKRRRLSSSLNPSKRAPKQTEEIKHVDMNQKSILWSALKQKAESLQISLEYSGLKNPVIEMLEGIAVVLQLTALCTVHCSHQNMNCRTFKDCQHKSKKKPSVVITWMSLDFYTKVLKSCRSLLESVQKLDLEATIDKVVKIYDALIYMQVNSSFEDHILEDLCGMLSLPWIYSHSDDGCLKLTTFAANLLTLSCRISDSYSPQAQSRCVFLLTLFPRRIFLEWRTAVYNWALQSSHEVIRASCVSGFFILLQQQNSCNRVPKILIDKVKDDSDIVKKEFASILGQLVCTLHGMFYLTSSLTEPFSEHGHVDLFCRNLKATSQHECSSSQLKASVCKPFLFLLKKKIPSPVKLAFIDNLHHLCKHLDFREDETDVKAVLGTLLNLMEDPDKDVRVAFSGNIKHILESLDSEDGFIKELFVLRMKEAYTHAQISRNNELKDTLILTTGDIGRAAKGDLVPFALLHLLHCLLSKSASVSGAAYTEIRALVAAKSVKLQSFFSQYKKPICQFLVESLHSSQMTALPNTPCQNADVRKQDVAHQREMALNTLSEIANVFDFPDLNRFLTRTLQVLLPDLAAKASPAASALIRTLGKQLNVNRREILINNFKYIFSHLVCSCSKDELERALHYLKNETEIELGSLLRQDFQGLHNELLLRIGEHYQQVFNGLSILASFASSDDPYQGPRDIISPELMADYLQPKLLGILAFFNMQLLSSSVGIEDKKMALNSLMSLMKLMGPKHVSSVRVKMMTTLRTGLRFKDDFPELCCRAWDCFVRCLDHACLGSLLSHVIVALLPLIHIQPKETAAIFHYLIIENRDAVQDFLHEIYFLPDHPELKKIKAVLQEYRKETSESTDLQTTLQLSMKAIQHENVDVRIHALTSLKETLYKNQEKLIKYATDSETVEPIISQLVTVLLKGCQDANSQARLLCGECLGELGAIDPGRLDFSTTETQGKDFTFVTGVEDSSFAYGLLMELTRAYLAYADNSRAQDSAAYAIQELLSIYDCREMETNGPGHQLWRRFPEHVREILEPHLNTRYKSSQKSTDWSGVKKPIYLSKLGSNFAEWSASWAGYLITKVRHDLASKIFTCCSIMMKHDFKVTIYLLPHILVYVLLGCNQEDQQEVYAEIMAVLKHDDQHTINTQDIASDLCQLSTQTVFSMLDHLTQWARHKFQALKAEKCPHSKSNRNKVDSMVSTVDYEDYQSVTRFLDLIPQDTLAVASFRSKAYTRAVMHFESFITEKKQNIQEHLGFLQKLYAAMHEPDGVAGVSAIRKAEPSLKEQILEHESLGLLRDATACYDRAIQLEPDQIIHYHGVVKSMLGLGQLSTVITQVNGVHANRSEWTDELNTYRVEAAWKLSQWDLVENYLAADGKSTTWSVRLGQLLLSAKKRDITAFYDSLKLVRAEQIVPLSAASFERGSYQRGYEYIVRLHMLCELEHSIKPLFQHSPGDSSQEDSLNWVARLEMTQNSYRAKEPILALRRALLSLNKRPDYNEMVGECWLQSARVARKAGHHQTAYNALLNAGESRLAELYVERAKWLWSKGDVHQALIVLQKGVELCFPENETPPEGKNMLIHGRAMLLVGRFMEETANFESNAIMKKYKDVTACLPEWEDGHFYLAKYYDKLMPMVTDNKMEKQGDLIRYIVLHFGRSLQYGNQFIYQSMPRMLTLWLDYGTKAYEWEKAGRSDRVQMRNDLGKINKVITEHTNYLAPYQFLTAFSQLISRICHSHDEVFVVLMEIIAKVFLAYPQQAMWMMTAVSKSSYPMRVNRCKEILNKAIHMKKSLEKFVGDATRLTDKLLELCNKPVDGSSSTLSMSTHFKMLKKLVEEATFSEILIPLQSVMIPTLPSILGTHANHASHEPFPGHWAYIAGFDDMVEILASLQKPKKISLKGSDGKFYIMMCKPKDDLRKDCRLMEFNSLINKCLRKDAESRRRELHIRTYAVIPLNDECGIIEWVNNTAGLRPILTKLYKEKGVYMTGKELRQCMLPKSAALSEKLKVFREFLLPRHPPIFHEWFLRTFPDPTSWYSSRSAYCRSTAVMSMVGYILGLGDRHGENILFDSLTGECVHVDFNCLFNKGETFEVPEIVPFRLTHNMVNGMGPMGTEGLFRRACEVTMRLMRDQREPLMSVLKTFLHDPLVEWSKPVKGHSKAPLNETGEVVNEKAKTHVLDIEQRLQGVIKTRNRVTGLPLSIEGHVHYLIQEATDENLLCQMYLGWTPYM

Ki (full-length ATR): < 1000 nM
SMILES: Cn1cncc1-c1c(F)cncc1NC(=O)c1c(N)nn2cc(F)cnc12 [Compound I-1, 2-amino-6-fluoro-N-(5-fluoro-4-(1-methyl-1H-imidazol-5-yl)pyridin-3-yl)pyrazolo[1,5-a]pyrimidine-3-carboxamide]
Cisplatin sensitization values (concentration of compound required to reduce the IC50 of Cisplatin alone by at least 3-fold) [1]: < 200 nM

Source: patent publication US10800781B2, “Compounds useful as inhibitors of ATR kinase” (Vertex Pharmaceuticals Incorporated, priority 2014, dated 2020)
